From patent publication US20230139328A1, “DOSAGE FORMS FOR IMPROVING ORGAN TRANSPLANTATION, GRAFT VERSUS HOST DISEASE AND STEM CELLS TRANSPLANTS” (Aphios Corporation, priority 2020, published 2023)
Entries after “also recorded” stand apart in the source; their conditions may differ.

Tests used:
[1] = system: T84 intestinal epithelia; settings: cited from earlier work
[2] = system: PKC-δ siRNA nucleofected HUVEC; experiment: LTB4 mediated neutrophil migration across PKC-δ siRNA nucleofected HUVEC; assay type: cell-based, human; settings: 100 nM, 1 h; PKC-δ knockdown
Description: Because studies in FIG. 8 could not discriminate between PKC-δ and […] isoforms mediating the effect of Bryostatin-1, we knocked down individual isoforms using siRNA technology. In order to verify that we could knock down particular isoforms of PKC, specifically PKC-8 and PKC-ε isoforms in HUVEC, siRNA which selectively bind to and eliminate human PKC-8 and PKC-ε mRNAs were nucleofected into HUVEC prior to migration studies. […] HUVEC cells treated using these approaches were then subjected to chemotaxis studies with Bryostatin-1 to elucidate the mechanism of Bryostatin-1 mediated inhibition of LTB4 induced PMN migration.
Neutrophil Transendothelial Migration (TEM) Restoration Studies: HUVECs were pretreated with Go-6983 (1, 10, 100 nM), or Go-6976 (1, 10,100 nM) for 30 minutes, then spiked with 100 nM Bryostatin-1 for 1 hour. […] Migration was stopped by removing the inserts and migration was measured using the MPO assay.
Myeloperoxidase Assay: Neutrophil migration was measured using myeloperoxidase (MPO) analysis. […] The supernatant was removed, and MPO activity was measured using TMB/peroxide as chromogen. The reaction was stopped with sulfuric acid and absorbance was read at 450 nm using a microplate reader. […] Data was expressed as “% neutrophil migration”, which allowed cumulative statistical analysis to be done and account for unpreventable batch-to-batch variations. […]

[3] = system: transplanted kidney; experiment: Porcine kidney auto-transplantation model (20 h cold storage, reperfusion); assay type: in vivo, German Landrace pigs; settings: pig
Experimental: We used the porcine kidney auto-transplantation model with the modified PET formulation of Bryostatin-1 in thirty-two female German Landrace pigs weighing 20 to 40 kg. Briefly, animals had surgery for graft retrieval followed by a standard graft cold storage time (CST) of 20 h. During CST, kidneys were preserved with histidine-tryptophan-ketoglutarate (HTK)-solution either supplemented with 100 nM Bryostatin-1 or an equivalent volume of placebo (PET formulation). Donor animals then had surgery again for renal auto-transplantation and the graft was transplanted orthotopically. Thus, the contralateral kidney was removed to measure specifically function of the transplanted kidney. Time of reperfusion was 8 h and sample collection included cortical renal biopsies, tissue block samples at the end of the study and blood as well as urine analyses.

[4] = system: neutrophil migration across HUVEC; experiment: Neutrophil transendothelial migration (TEM) restoration studies with PKC inhibitors in HUVEC; assay type: cell-based, human; settings: 100 nM Bryostatin-1, 100 nM LTB4, 3 h
Experimental: HUVEC were pretreated with G0-6983, a PKC inhibitor with dose dependent specificities for classical vs. novel PKC isoforms for 30 minutes prior to addition of Bryostatin-1 (100 nM) to block neutrophil migration. […] Neutrophil migration towards 100 nM LTB4 was initiated by adding LTB4 to the lower well.
Neutrophil Transendothelial Migration (TEM) Restoration Studies: HUVECs were pretreated with Go-6983 (1, 10, 100 nM), or Go-6976 (1, 10,100 nM) for 30 minutes, then spiked with 100 nM Bryostatin-1 for 1 hour. HUVECs previously nucleofected with PKC-δ, -ε, or control siRNA were just treated in Bryostatin-1 for 1 hour. HUVECs were washed three times and placed in a new plate containing either 500 IL 100 nM LTB4, or HBSS alone for control. Neutrophils were allowed to migrate for 3 h at 37° C. Migration was stopped by removing the inserts and migration was measured using the MPO assay.
Myeloperoxidase Assay: Neutrophil migration was measured using myeloperoxidase (MPO) analysis. Cell culture inserts were first removed, and plates were spun at 1,500 RPM for 5 min. The supernatant was removed, and MPO activity was measured using TMB/peroxide as chromogen. The reaction was stopped with sulfuric acid and absorbance was read at 450 nm using a microplate reader. All experiments were performed n=6. Data was expressed as “% neutrophil migration”, which allowed cumulative statistical analysis to be done and account for unpreventable batch-to-batch variations.

[5] = HTK-solution with 100 nM Bryostatin-1 during 20 h cold storage vs placebo

SMILES: CCC/C=C/C=C/C(=O)O[C@H]1/C(=C/C(=O)OC)C[C@H]2C[C@H]([C@@H](C)O)OC(=O)C[C@H](O)C[C@@H]3C[C@H](OC(C)=O)C(C)(C)[C@](O)(C[C@@H]4C/C(=C/C(=O)OC)C[C@H](/C=C/C(C)(C)[C@]1(O)O2)O4)O3 [Bryostatin-1]
- barrier function and TNF-α induced barrier loss [1]: enhances barrier function and inhibits barrier loss induced by TNF-α
- effect on LTB4 mediated neutrophil migration in PKC-δ siRNA nucleofected HUVEC [2]: restored the normal level of neutrophil trans endothelial migration; also recorded: will not inhibit LTB4 mediated neutrophil migration
- serum/plasma and urinary inflammatory biomarkers ([3]; 100 nM Bryostatin-1 in HTK-solution): not altered
- kidney histology scores at 6 hours ([3]; 100 nM Bryostatin-1 in HTK-solution, 6 hours): significantly improved
- kidney ultrastructural damage scores [3, 5]: significantly reduced
- neutrophils entering the re-perfused kidney [3, 5]: significantly prevented
- effect on LTB4 induced neutrophil migration, HUVEC [4]: reversed; also recorded: significantly suppressed LTB4 induced migration
